Experimental data: patent US5849557A, “Oxidized phospholipid degrading enzyme and gene thereof” (Suntory Limited, priority 1993, dated 1998)

Assays:
[1] = target: T1, oxidized phospholipid degrading enzyme (purified enzyme) (Bos taurus, UniProt Q29460); assay: biochemical; set-up: species or system bovine
T1 construct: from tissue; host or cells: bovine brain gray matter, soluble cytoplasmic fraction
T1 sequence (Q29460 2-232): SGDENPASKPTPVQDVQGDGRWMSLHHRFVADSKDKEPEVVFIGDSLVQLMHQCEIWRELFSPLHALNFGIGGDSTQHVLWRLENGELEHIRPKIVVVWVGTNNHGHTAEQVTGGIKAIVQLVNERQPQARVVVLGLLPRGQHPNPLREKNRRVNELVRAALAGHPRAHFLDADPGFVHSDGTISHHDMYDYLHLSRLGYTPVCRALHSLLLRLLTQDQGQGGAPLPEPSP
T1 sequence (P68401 2-229 partner limits assumed): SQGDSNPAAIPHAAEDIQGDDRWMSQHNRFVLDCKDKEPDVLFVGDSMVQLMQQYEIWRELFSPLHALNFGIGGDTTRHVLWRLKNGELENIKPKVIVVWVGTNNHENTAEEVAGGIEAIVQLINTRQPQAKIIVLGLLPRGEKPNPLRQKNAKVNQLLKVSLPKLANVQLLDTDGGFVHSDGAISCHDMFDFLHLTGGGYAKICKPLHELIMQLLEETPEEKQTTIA
T1 sequence (P43033 2-410 A26E/E154Q partner limits assumed): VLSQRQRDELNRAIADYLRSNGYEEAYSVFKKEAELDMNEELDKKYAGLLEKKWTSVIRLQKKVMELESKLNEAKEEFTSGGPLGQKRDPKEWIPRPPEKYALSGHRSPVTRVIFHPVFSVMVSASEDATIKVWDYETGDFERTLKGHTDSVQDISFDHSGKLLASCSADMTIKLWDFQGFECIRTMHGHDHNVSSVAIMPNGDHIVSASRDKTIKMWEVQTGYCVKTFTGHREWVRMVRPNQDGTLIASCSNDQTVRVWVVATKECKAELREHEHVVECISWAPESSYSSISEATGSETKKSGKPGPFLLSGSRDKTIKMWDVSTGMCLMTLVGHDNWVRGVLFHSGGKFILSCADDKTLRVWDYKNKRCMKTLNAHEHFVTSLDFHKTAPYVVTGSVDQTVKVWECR

[2] = tested on: oxidized phospholipid degrading enzyme; assay: Influence of calcium ions on the enzyme activity; assay type: biochemical, bovine; conditions: 4 mM calcium chloride
Description: Measurement of the oxidized phospholipid degrading enzyme by using PAF was conducted in a similar manner to Reference Example 2. Namely, Tris-HCl buffer (final concentration: 50 mM, pH 7.4) which contained as a substrate 20 nmol (6,000 dpm) of the labeled PAF obtained in step (a) was added with 5 mM EDTA or 4 mM CaCl2 as needed, to which the sample (enzyme source) to be measured was added to give a total volume of 250 μl.
(§1) They were mixed in a test tube over ice and then incubated at 37° C. for 30 minutes. Thereafter, 2.5 ml of a chloroform-methanol (4:1) mixture were added to terminate the reaction. Subsequent to addition of 0.25 ml of water, the resulting mixture was vigorously mixed for 5 minutes by a vortex stirrer and then centrifuged for 5 minutes at 3,000 rpm to separate it into two layers. From the upper layer, 600 μl were collected, in which 3 ml of "Clearsol I" (product of NACALAI TESQUE INC.) were mixed. The radioactivity was measured by a liquid scintillation counter. From the intensity of the radioactivity, the amount of acetic acid formed as a result of 2-hydrolysis was calculated to determine the enzyme activity.
The enzyme activity was measured by the measuring method of Reference Example 3 except that 4 mM CaCl2 was added instead of 5 mM of EDTA.

[3] = target: T1, oxidized phospholipid degrading enzyme (purified enzyme); assay: Substrate specificity of the purified enzyme; assay type: biochemical, bovine
Description: as §1, with “560 μl” for “2.5 ml”, “(1:1)” for “(4:1)”, “After” for “Subsequent to addition of 0.25 ml of water,”, “stirrer, the mixture was” for “stirrer and then”, “300” for “600”, “the dicarboxylic” for “acetic”
Namely, Tris-HCl buffer (final concentration: 50 mM, pH 7.4) which contained as a substrate 20 nmol (6,000 dpm) of the labeled PAF obtained in step (a) was added with 5 mM EDTA or 4 mM CaCl2 as needed, to which the sample (enzyme source) to be measured was added to give a total volume of 250 μl.
as §1

[4] = target: T2, 30 kDa-29 kDa complex without the 45 kDa subunit (bovine); assay: co-purification of the native enzyme; gel filtration and SDS-PAGE
T2 chain 1: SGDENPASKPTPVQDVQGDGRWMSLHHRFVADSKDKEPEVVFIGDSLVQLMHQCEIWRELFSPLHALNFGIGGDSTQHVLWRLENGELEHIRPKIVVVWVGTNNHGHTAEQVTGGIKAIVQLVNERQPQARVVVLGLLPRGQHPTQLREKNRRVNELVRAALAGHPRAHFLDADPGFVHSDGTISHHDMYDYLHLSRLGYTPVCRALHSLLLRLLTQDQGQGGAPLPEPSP
T2 chain 2: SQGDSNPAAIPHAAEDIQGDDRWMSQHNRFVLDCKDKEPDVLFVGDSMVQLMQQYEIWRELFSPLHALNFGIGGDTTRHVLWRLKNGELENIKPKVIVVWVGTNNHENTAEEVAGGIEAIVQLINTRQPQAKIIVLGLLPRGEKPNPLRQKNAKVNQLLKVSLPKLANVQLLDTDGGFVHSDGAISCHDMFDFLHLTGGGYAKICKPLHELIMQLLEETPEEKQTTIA

[5] = target: T3, 30 kDa subunit of the oxidized phospholipid degrading enzyme (bovine); assay: heparin Sepharose or sulfated Cellulofine column treatment of the native enzyme
T3 chain: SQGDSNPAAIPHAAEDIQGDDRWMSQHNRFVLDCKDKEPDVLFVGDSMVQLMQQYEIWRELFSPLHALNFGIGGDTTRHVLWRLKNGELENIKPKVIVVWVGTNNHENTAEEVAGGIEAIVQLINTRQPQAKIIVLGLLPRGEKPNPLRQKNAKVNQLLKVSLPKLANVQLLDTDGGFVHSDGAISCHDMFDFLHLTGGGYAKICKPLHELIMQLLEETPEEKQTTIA
Description: Against buffer A, 15 ml of the roughly purified fraction obtained in step (e) of Example 1 were dialyzed. The solution so dialyzed was then applied to a column (1×5 cm) of "heparin Sepharose" (product of Pharmacia AB) which had been equilibrated with buffer A, whereby about 80% of the enzyme activity passed through the column without adsorption. When the column was washed with buffer A subsequent to the passage of the dialyzed solution, the activity was gradually eluted with tailing.
After the column was washed with about 30 ml of buffer A, the enzyme was eluted with a 30 ml linear gradient of NaCl (0M to 1.5M) in buffer A. The enzyme activity was eluted around about 0.3M NaCl concentration. […] Further, the fractions eluted around about 0.6M NaCl concentration gave only one spot at 45 kDa.

[6] = in the presence of 4 mM CaCl2, method of Dole et al.

Q: Which “Inhibition of enzyme reactions (in words)” value [1] does the source give for `O=C(CBr)c1ccc(Br)cc1` [BPB, p-bromophenacyl bromide] here?
A: The value was “inhibited”.

Q: What about the “Inhibition of the purified enzyme (in words, summary of Table 3)” value [1] of the same molecule?
A: Its value is “inhibited”.

Q: What about the inhibition at 100 µM [1] of the same molecule?
A: Its inhibition at 100 µM is 20%.

Q: What about the inhibition at 1000 µM [1] of the same molecule?
A: The inhibition at 1000 µM was 97%.

Q: `[Ca+2].[Cl-].[Cl-]` [CaCl2, calcium chloride] was tested. Which “Enhancement of enzyme activity (in words)” value [2] did it give?
A: The value was “slightly enhanced”.

Q: Which results are given for `NC(=O)CI` [IAM, iodoacetamide]?
A: Inhibition of enzyme reactions (in words) [1]: not inhibited; Inhibition of the purified enzyme (in words, summary of Table 3) [1]: not inhibited at all; inhibition at 100 µM [1]: 0%; inhibition at 1000 µM [1]: 0%

Q: For `CCCCCCCCCCCCCCCC(=O)OC[C@@H](O)COP(=O)([O-])OCC[N+](C)(C)C` [Lyso PC, 1-palmitoyl-sn-glycero-3-phosphocholine], which “Degrading activity / hydrolysis by the enzyme (in words)” value (“Degrading activity / hydrolysis” for short) [3] is on record?
A: The value was “absolutely no degrading activity”.

Q: What about the Specific activity [3, 6] of the same molecule?
A: Its Specific activity is “Not degraded”.

Q: How did the “Degrading activity / hydrolysis” value [3] turn out when `CCCCCCCCCCCCCCCCOC[C@H](COP(=O)([O-])OCC[N+](C)(C)C)OC(C)=O` [PAF, 1-hexadecyl-2-acetyl-sn-glycero-3-phospho-choline] was run?
A: The value was “shows degrading activity”.

Q: And the Specific activity ([3]; method of Reference Examples 2 and 3)?
A: Its Specific activity is 1.45 nmol/min/mg.

Q: phosphatidylethanolamine [PE] was tested. Which “Degrading activity / hydrolysis” value [3] did it give?
A: The value was “does not show any degrading activity”.

Q: What about the Specific activity [3, 6] of the same molecule?
A: The Specific activity was “Not degraded”.

B1: 45 kDa subunit of the oxidized phospholipid degrading enzyme (other)
chain: VLSQRQRDELNRAIADYLRSNGYEEAYSVFKKEAELDMNEELDKKYAGLLEKKWTSVIRLQKKVMELESKLNEAKEEFTSGGPLGQKRDPKEWIPRPPEKYALSGHRSPVTRVIFHPVFSVMVSASEDATIKVWDYETGDFERTLKGHTDSVQDISFDHSGKLLASCSADMTIKLWDFQGFECIRTMHGHDHNVSSVAIMPNGDHIVSASRDKTIKMWEVQTGYCVKTFTGHREWVRMVRPNQDGTLIASCSNDQTVRVWVVATKECKAELREHEHVVECISWAPESSYSSISEATGSETKKSGKPGPFLLSGSRDKTIKMWDVSTGMCLMTLVGHDNWVRGVLFHSGGKFILSCADDKTLRVWDYKNKRCMKTLNAHEHFVTSLDFHKTAPYVVTGSVDQTVKVWECR
Q: Does B1 bind [4]?
A: Result: binds

B2: 29 kDa subunit of the oxidized phospholipid degrading enzyme (enzyme)
chain: SGDENPASKPTPVQDVQGDGRWMSLHHRFVADSKDKEPEVVFIGDSLVQLMHQCEIWRELFSPLHALNFGIGGDSTQHVLWRLENGELEHIRPKIVVVWVGTNNHGHTAEQVTGGIKAIVQLVNERQPQARVVVLGLLPRGQHPTQLREKNRRVNELVRAALAGHPRAHFLDADPGFVHSDGTISHHDMYDYLHLSRLGYTPVCRALHSLLLRLLTQDQGQGGAPLPEPSP
Q: Does B2 bind [5]?
A: Result: binds
